Patent US20110104662A1, “Methods of Detecting Inhibitors of VIF-Mediated APOBEC3G Degradation and HIV” (RIGEL PHARMACEUTICALS, INC., priority 2007, published 2011)
Where a SMILES comes first, the peptide text is derived from it. The star is where a group is joined. Cbz = O=C(OCc1ccccc1)*

Columns and labels:
[1] = system: A3G-luciferase (A3G-luc); experiment: APOBEC3G-luciferase activity in virus supernatant of co-transfected 293T cells; assay type: cell-based; conditions: 10 uM MG132
Source text: (§1) In all embodiments employing cotransfection of a wild-type or Δvif HIV genome together with an APOBEC3G-fluorescent reporter fusion, adjusting the relative ratio of plasmids encoding the wild-type (WT) or Δvif HIV genomes and A3G-luciferase (A3G-luc) for cotransfection in virus producer cells (e.g., 293T cells) is useful for achieving an optimal signal to background ratio and dynamic assay range for antiviral compound characterization. Adjusting the cotransfection ratio is also useful for obtaining a linear correlation between the fluorescent reporter (e.g., luciferase) signal and the level of A3G-fluorescent reporter protein detected by Western blotting. The luciferase activity ratio of (Δvif HIV+A3G-luc) over (WT HIV+A3G-luc) in both virus supernatant and 293T cell lysates was measured.
(§2) 293T cells were seeded in 6-well plates at 500,000 cells/well density. On the second day, 4 μg of wild-type or delta vif HIV-1 construct and pcDNA3.1-APOBEC3G-luciferase construct plasmid DNA were co-transfected into 293T cells using Lipofectamine 2000 (Invitrogen). On the third day, cells were detached with trypsin and plated into 24-well plates at 300,000 cells/well density. On the fourth day, medium was replaced in each well with either 0.5% DMSP medium or with compound and 0.5% DMSO containing medium.
Twenty hours post dosing, the culture supernatant from Example 5 was harvested and filtered through a 0.45μ filter. Twenty microliters of virus supernatant from each sample were transferred into a 96-Well plate. 30 μL of culture medium and 50 μL of Bright-Glo lysis buffer (Promega), were added to each well, followed by 50 μL of Bright-Glo Substrate (Promega). The luciferase activity from the virus supernatant was then detected using a Top Count reader (Perkin Elmer). The concentration of virus particles in the supernatant was determined by p24 ELISA (Perkin Elmer). The luciferase activity of the virus supernatant was then normalized relative to the concentration of virus particles by dividing the background corrected luciferase light units by the p24 values.

[2] = system: Vif-mediated APOBEC3G degradation; experiment: Cell-based screening assay, Vif/APOBEC3G-luciferase HeLa line; set-up: species or system HIV; conditions: 10 μM MG132 for 24 hours; selected blasticidin-resistant Vif/APOBEC3G-luciferase HeLa clone
Source text: Inhibitors of Vif-mediated APOBEC3G degradation were screened using a cell-based assay. The assay uses HeLa cells that stably expresses Vif and APOBEC3G fused at its C-terminus to firefly luciferase. Under steady-state conditions, there is very little luciferase activity. When degradation of the APOBEC3G-luciferase fusion is inhibited, a significant increase in the luciferase activity is observed.
Construction of screening line (Vif/APOBEC3G-luciferase HeLa line). HeLa cells were cotransfected with a 1:1 ratio of pcDNA6-Vif and pcDNA3.1-APOBEC3G-luciferase plasmids using Fugene transfection reagent. Twenty-four hours after transfection, cells were trypsinized and different dilutions plated on 10 cm dishes. After attachment, stable transfectants were selected using medium containing 10 μg/ml blasticidin S. The blasticidin resistance gene is carried in the pcDNA6-Vif plasmid. Individual clones were plated in duplicate 96-well plates, treated with either DMSO or 10 μM MG132 for 24 hours, and then assayed for luciferase activity. […] The presence of Vif and APOBEC3G-luciferase proteins was confirmed by treating cells with 10 μM MG132 overnight and analyzing cell lysates for both Vif and APOBEC3G-luciferase by western blotting (See FIG. 7B).

[3] = system: A3G-luciferase (A3G-luc); experiment: APOBEC3G-luciferase activity in 293T cell lysate of co-transfected virus producer cells; assay type: cell-based; conditions: 10 uM MG132
Source text: as §1, §2
Twenty hours post dosing, the virus producing 293T cells of Example 5 were lysed with 200 μL of Bright-Glo lysis buffer in 24-well plates. Cell lysates were diluted 1:100 in PBS. 10 μL of each lysate sample were transferred to small well 96-well plates and 10 μL of Bright-Glo substrate were added to each well. The luciferase activity from the cell lysates was then detected using a Top Count reader. The total protein concentration was determined using the Quant-IT Protein Assay Kit (Molecular Probes). The luciferase activity was normalized relative to total cellular protein by dividing the background corrected luciferase light units by the total protein concentration.

[4] = Experiment 1, co-transfection ratio 19:1
[5] = Experiment 1, co-transfection ratio 39:1
[6] = Experiment 1, co-transfection ratio 79:1
[7] = Experiment 1, co-transfection ratio 159:1
[8] = Experiment 2, co-transfection ratio 19:1
[9] = Experiment 2, co-transfection ratio 39:1
[10] = Experiment 2, co-transfection ratio 79:1
[11] = Experiment 2, co-transfection ratio 159:1

CC(C)C[C@@H](C=O)NC(=O)[C@H](CC(C)C)NC(=O)[C@H](CC(C)C)NC(=O)OCc1ccccc1 [MG132] (Cbz-Leu-Leu-Leu-aldehyde)
RLU ratio (delta vif HIV + A3G-luc/WT HIV + A3G-luc), Virus sup. (RLU) [1, 4]: 3.2 | RLU ratio (delta vif HIV + A3G-luc/WT HIV + A3G-luc), Virus sup. (RLU) [1, 5]: 5.5 | RLU ratio (delta vif HIV + A3G-luc/WT HIV + A3G-luc), Virus sup. (RLU) [1, 6]: 5.9 | RLU ratio (delta vif HIV + A3G-luc/WT HIV + A3G-luc), Virus sup. (RLU) [1, 7]: 4.7 | RLU ratio (delta vif HIV + A3G-luc/WT HIV + A3G-luc), Virus sup. (RLU) [1, 8]: 9.2 | RLU ratio (delta vif HIV + A3G-luc/WT HIV + A3G-luc), Virus sup. (RLU) [1, 9]: 3.9 | RLU ratio (delta vif HIV + A3G-luc/WT HIV + A3G-luc), Virus sup. (RLU) [1, 10]: 16.8 | RLU ratio (delta vif HIV + A3G-luc/WT HIV + A3G-luc), Virus sup. (RLU) [1, 11]: 9.2 | window in luciferase activity between DMSO and MG132 [2]: at least a ten-fold window in luciferase activity | RLU ratio (delta vif HIV + A3G-luc/WT HIV + A3G-luc), 293 T cell lysate (RLU) [3, 4]: 2.6 | RLU ratio (delta vif HIV + A3G-luc/WT HIV + A3G-luc), 293 T cell lysate (RLU) [3, 5]: 2.4 | RLU ratio (delta vif HIV + A3G-luc/WT HIV + A3G-luc), 293 T cell lysate (RLU) [3, 6]: 3.7 | RLU ratio (delta vif HIV + A3G-luc/WT HIV + A3G-luc), 293 T cell lysate (RLU) [3, 7]: 6.8 | RLU ratio (delta vif HIV + A3G-luc/WT HIV + A3G-luc), 293 T cell lysate (RLU) [3, 8]: 1.4 | RLU ratio (delta vif HIV + A3G-luc/WT HIV + A3G-luc), 293 T cell lysate (RLU) [3, 9]: 1.8 | RLU ratio (delta vif HIV + A3G-luc/WT HIV + A3G-luc), 293 T cell lysate (RLU) [3, 10]: 2.9 | RLU ratio (delta vif HIV + A3G-luc/WT HIV + A3G-luc), 293 T cell lysate (RLU) [3, 11]: 8.7
